Test results taken from patent publication US20150297733A1 (TRIMEL BIOPHARMA SRL, priority 2012, published 2015).
Read-outs that look alike come from different tables or passages of the source.

Key:
[1] = target: T1, sex hormone binding globulin (SHBG) (Homo sapiens, UniProt P04278); details: cited from earlier work
T1 sequence (P04278 30-402): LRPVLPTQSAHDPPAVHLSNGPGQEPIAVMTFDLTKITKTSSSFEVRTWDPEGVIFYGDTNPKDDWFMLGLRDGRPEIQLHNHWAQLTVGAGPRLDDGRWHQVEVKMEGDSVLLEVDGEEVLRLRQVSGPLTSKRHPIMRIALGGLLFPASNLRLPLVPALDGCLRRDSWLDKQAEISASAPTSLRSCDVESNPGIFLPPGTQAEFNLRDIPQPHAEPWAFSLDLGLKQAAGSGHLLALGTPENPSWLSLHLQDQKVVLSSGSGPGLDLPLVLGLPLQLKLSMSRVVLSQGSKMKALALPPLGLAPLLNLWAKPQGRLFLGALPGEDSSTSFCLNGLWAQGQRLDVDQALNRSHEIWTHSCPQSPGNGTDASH

[2] = Solubility of testosterone in water, oils, solvents and vehicles
[3] = dissolved in polyethylene glycol (200 mg/ml); high variations; cited from earlier work
[4] = nasal, cited from earlier work
[5] = nasal, cited from earlier work; remark: listed apart in the source

C[C@]12CC[C@H]3[C@@H](CCC4=CC(=O)CC[C@@]43C)[C@@H]1CC[C@@H]2O [Testosterone]
fraction remaining unbound (free) ([1]; in men): about 2%
fraction remaining unbound (free) ([1]; in women): up to 3%
amount dissolved by diethyleneglycol ethyl ether alone [2]: more than 10%
amount dissolved by dimethyl isosorbide (DMI) [2]: more than 12%
testosterone levels in the gel allowed by DMI with the other excipients [2]: at least 8.0%
testosterone solubility in the oil based gel ([2]; oil based TBS-1A gel as printed): ≤ 4.5%

CC(=O)[C@H]1CC[C@H]2[C@@H]3CCC4=CC(=O)CC[C@]4(C)[C@H]3CC[C@]12C [progesterone]
duration of serum level [3]: at least 8 hours
Tmax ([4]; co-ground and co-lyophilized progesterone/cyclodextrin powder mixtures): 2 to 5 min
time of serum level decrease ([4]; progesterone/cyclodextrin powder mixtures): ≤ 20 min

CN(C)CC(=O)O[C@H]1CC[C@H]2[C@@H]3CCC4=CC(=O)CC[C@]4(C)[C@H]3CC[C@]12C [testosterone 17β-N,N-dimethylglycinate]
time to peak plasma concentration ([5]; 25 mg dose): ≤ 12 min
time to peak plasma concentration ([5]; 50 mg dose): ≤ 20 min
